A short description of the data set: in vivo. The conditions noted are these: mouse, plasma; for clearance: iv, 15 mg/kg.

The structures appear in SMILES notation.

In the case of `CCN1C(=O)[C@@H](NC(=O)c2cccc(C(F)(F)F)c2)[C@@H](c2ccc(F)cc2)c2c(CN)nn(-c3ccccc3)c21` (relative stereo) [Compound 40, N-(rel-(4S,5S)-3-(aminomethyl)-7-ethyl-4-(4-fluorophenyl)-6-oxo-1-phenyl-4,5,6,7-tetrahydro-1H-pyrazolo[3,4-b]pyridin-5-yl)-3-(trifluoromethyl)benzamide], the clearance is 20 mL/min/kg. As for `CCN1C(=O)[C@@H](NC(=O)c2cccc(C)c2)[C@@H](c2ccc(F)cc2)c2c(C)nn(-c3ccccc3)c21` (relative stereo) [Compound 2, N-(rel-(4S,5S)-7-ethyl-4-(4-fluorophenyl)-3-methyl-6-oxo-1-phenyl-4,5,6,7-tetrahydro-1H-pyrazolo[3,4-b]pyridin-5-yl)-3-methylbenzamide], the clearance is 86.7 mL/min/kg. The AUC (po, 50 mg/kg) came to 2.9 µM·h.

A word on the clearance: it is the rate of elimination divided by the concentration. As usually defined, the AUC is concentration integrated over time. Low readings indicate less exposure, high ones more exposure.

These data come from PMC8159160 (Journal of medicinal chemistry, 2021).
